A short description of this series: in vitro. Particulars: human, hela cells, % viability.

This note sets out measurements from paper PMC12040169 (PLOS Biology, 2025).

Molecules are shown by their SMILES.

On to `CN(C)c1ccc(-n2ccn(S(=O)(=O)c3ccc4ccccc4c3)c2=O)cc1` [CBK106607], for which the viability at 28.5 h, 10 µM was determined as 93.5%.

Consider `CN(C)c1ccc(-n2ccn(S(=O)(=O)c3ccc(Oc4ccccc4)cc3)c2=O)cc1` [CBK106608], for which the viability at 28.5 h, 10 µM was 89.3%.

As to `Cc1nn(C)c(C)c1S(=O)(=O)n1ccn(-c2ccc(N(C)C)cc2)c1=O` [CBK106610], the viability at 28.5 h, 10 µM was 93%.

`O=C(CCCOc1ccc(Cl)cc1)n1ccn(CCc2cccs2)c1=O` [CBK106614]: the viability at 28.5 h, 10 µM was determined as 104%.

Consider `O=c1n(C(c2ccccc2)c2ccccc2)ccn1S(=O)(=O)c1ccc2ccccc2c1` [CBK106623], for which the viability at 28.5 h, 10 µM came to 94.6%.

Turning to `O=c1n(C(c2ccccc2)c2ccccc2)ccn1S(=O)(=O)c1ccc(Oc2ccccc2)cc1` [CBK106624], the viability at 28.5 h, 10 µM worked out at 89.5%.

Regarding `COc1cccc(-n2ccn(C(=O)CCC3CCCC3)c2=O)c1` [CBK106625], the viability at 28.5 h, 10 µM is 91.1%.

For the compound `CC(C)S(=O)(=O)n1ccn(-c2ccc3c(c2)OCO3)c1=O` [CBK106630], the viability at 28.5 h, 10 µM is 90.9%.

On to `O=c1n(-c2ccc3c(c2)OCO3)ccn1S(=O)(=O)c1ccc2c(c1)OCCO2` [CBK106636], for which the viability at 28.5 h, 10 µM was found to be 87.8%.

As to `COc1cccc(OCc2ccc(Cn3ccn(C(=O)CCCC(C)C)c3=O)cc2)c1` [CBK106638], the viability at 28.5 h, 10 µM turned out to be 90.5%.

As for `Cc1nc2cc(OCc3ccc(Cn4ccn(C(=O)CCC5CCCC5)c4=O)cc3)ccc2s1` [CBK106641], the viability at 28.5 h, 10 µM was 115%.

With `CC(C)S(=O)(=O)n1ccn(-c2ccc(Oc3ccccc3)cc2)c1=O` [CBK106644], the viability at 28.5 h, 10 µM came to 86.3%.

With `CCCc1ccc(S(=O)(=O)n2ccn(-c3ccc(Oc4ccccc4)cc3)c2=O)cc1` [CBK106648], the viability at 28.5 h, 10 µM was determined as 107%.

Take `COc1ccc(S(=O)(=O)n2ccn(-c3ccc(Oc4ccccc4)cc3)c2=O)cc1OC` [CBK106649]: the viability at 28.5 h, 10 µM worked out at 86.9%.

Regarding `O=c1n(-c2ccc(OC(F)(F)F)cc2)ccn1S(=O)(=O)c1ccccc1` [CBK106655], the viability at 28.5 h, 10 µM was found to be 95.1%.

Regarding `O=c1n(-c2ccc(OC(F)(F)F)cc2)ccn1S(=O)(=O)c1ccc(Cl)c(Cl)c1` [CBK106656], the viability at 28.5 h, 10 µM worked out at 94.7%.

Take `COc1ccc(OCCCn2ccn(C(=O)CCCOc3ccc(Cl)cc3)c2=O)cc1` [CBK106662]: the viability at 28.5 h, 10 µM stood at 94.3%.

Consider `CCCS(=O)(=O)n1ccn(-c2ccc(Cl)c(Cl)c2)c1=O` [CBK106667], for which the viability at 28.5 h, 10 µM was determined as 110%.

Turning to `O=c1n(-c2ccc(Cl)c(Cl)c2)ccn1S(=O)(=O)CCc1cccc2ccccc12` [CBK106668], the viability at 28.5 h, 10 µM was 106%.

As to `O=C(OCc1ccccc1)N1CCC(n2ccn(C(=O)CCC3CCCC3)c2=O)CC1` [CBK106670], the viability at 28.5 h, 10 µM stood at 86.7%.

In the case of `COc1cccc(Oc2nccnc2-c2ccc3c(c2)OCO3)c1` [CBK106704], the viability at 28.5 h, 10 µM is 94.9%.

With `c1ccc(C(Oc2nccnc2-c2ccc3c(c2)OCO3)c2ccccc2)cc1` [CBK106707], the viability at 28.5 h, 10 µM was 103%.

With `c1ccc(OCCOc2nccnc2-c2ccc3c(c2)OCO3)cc1` [CBK106714], the viability at 28.5 h, 10 µM is 96.1%.

Consider `c1cc(-c2nccnc2Oc2ccc3c(c2)OCO3)ccn1` [CBK106726], for which the viability at 28.5 h, 10 µM was determined as 92.4%.

Consider `c1cc(-c2nccnc2OC2CCCCC2)ccn1` [CBK106727], for which the viability at 28.5 h, 10 µM turned out to be 87.8%.

As to `c1ccc(C(Oc2nccnc2-c2ccncc2)c2ccccc2)cc1` [CBK106728], the viability at 28.5 h, 10 µM is 89.1%.

For `c1cc(-c2nccnc2OCCn2ccnc2)ccn1` [CBK106737], the viability at 28.5 h, 10 µM came out at 87%.

Take `COc1ncc(-c2nccnc2OCCc2c[nH]c3ccccc23)c(OC)n1` [CBK106743]: the viability at 28.5 h, 10 µM turned out to be 79.2%.

In the case of `COc1ncc(-c2nccnc2OC2CCCCC2)c(OC)n1` [CBK106745], the viability at 28.5 h, 10 µM stood at 90.8%.

Consider `COc1ncc(-c2nccnc2OCc2ccccc2)c(OC)n1` [CBK106748], for which the viability at 28.5 h, 10 µM is 108%.

Turning to `COc1ncc(-c2nccnc2OCc2cccs2)c(OC)n1` [CBK106750], the viability at 28.5 h, 10 µM turned out to be 102%.

Turning to `O=C1CCCN1CCOc1nccnc1-c1ccsc1` [CBK106759], the viability at 28.5 h, 10 µM was 89.7%.

Turning to `O=C1c2ccccc2C(=O)N1CCOc1nccnc1-c1ccsc1` [CBK106760], the viability at 28.5 h, 10 µM was 90.4%.

Take `c1ccc(C(Oc2nccnc2-c2ccsc2)c2ccccc2)cc1` [CBK106765]: the viability at 28.5 h, 10 µM was determined as 103%.

For `c1ccc(OCCOc2nccnc2-c2ccsc2)cc1` [CBK106773], the viability at 28.5 h, 10 µM is 103%.

Regarding `CC(C)N(CCOc1nccnc1-c1ccsc1)C(C)C` [CBK106777], the viability at 28.5 h, 10 µM is 111%.

`CCCCOc1nccnc1-c1ccsc1` [CBK106778]: the viability at 28.5 h, 10 µM is 101%.

Consider `O=C1CCCN1CCOc1nccnc1-c1cc2ccccc2s1` [CBK106780], for which the viability at 28.5 h, 10 µM was found to be 91%.

On to `CC(=O)Nc1cccc(Oc2nccnc2-c2cc3ccccc3s2)c1` [CBK106784], for which the viability at 28.5 h, 10 µM amounted to 101%.

Regarding `c1ccc(OCCOc2nccnc2-c2cc3ccccc3s2)cc1` [CBK106787], the viability at 28.5 h, 10 µM was found to be 92.3%.

`COc1nccnc1-c1ccc(SC)cc1` [CBK106795]: the viability at 28.5 h, 10 µM amounted to 95%.

`CSc1ccc(-c2nccnc2OCCN(C(C)C)C(C)C)cc1` [CBK106805]: the viability at 28.5 h, 10 µM was 107%.

Take `COc1ccccc1-c1nccnc1OC` [CBK106811]: the viability at 28.5 h, 10 µM came out at 93.7%.

Take `COc1ccccc1-c1nccnc1OCCn1cnc2c1c(=O)n(C)c(=O)n2C` [CBK106816]: the viability at 28.5 h, 10 µM turned out to be 109%.

For the compound `COc1ccccc1-c1nccnc1OCc1ccccc1` [CBK106817], the viability at 28.5 h, 10 µM was 108%.

With `COc1ccccc1-c1nccnc1OCCC(C)C` [CBK106818], the viability at 28.5 h, 10 µM was found to be 109%.

On to `COc1ccccc1-c1nccnc1OCc1cccs1` [CBK106819], for which the viability at 28.5 h, 10 µM amounted to 88.4%.

For the compound `COc1ccccc1-c1nccnc1OCCn1cccc1` [CBK106820], the viability at 28.5 h, 10 µM was 91.3%.

As for `COc1ccccc1-c1nccnc1OCc1cccc(OC)c1OC` [CBK106825], the viability at 28.5 h, 10 µM was determined as 81.2%.

Take `COc1ccc(CCOc2nccnc2-c2ccc(OC(F)(F)F)cc2)cc1` [CBK106846]: the viability at 28.5 h, 10 µM came to 109%.

As for `CC(C)N(CCOc1nccnc1-c1ccc(OC(F)(F)F)cc1)C(C)C` [CBK106848], the viability at 28.5 h, 10 µM came out at 89.3%.

In the case of `Cc1ccc(-c2nccnc2OCCc2c[nH]c3ccccc23)cc1C` [CBK106850], the viability at 28.5 h, 10 µM is 96%.

For `Cc1ccc(-c2nccnc2OCCn2cccc2)cc1C` [CBK106864], the viability at 28.5 h, 10 µM is 101%.

Regarding `C(=C\c1nccnc1OCCc1c[nH]c2ccccc12)/c1ccccc1` [CBK106872], the viability at 28.5 h, 10 µM worked out at 91.7%.

Regarding `C(=C\c1nccnc1OCc1ccccn1)/c1ccccc1` [CBK106874], the viability at 28.5 h, 10 µM was found to be 105%.

As for `O=C1CCCN1CCOc1nccnc1/C=C/c1ccccc1` [CBK106875], the viability at 28.5 h, 10 µM stood at 92.4%.

For `O=C1NCCN1CCOc1nccnc1/C=C/c1ccccc1` [CBK106879], the viability at 28.5 h, 10 µM amounted to 96%.

Turning to `CC(=O)Nc1ccc(CCOc2nccnc2/C=C/c2ccccc2)cc1` [CBK106880], the viability at 28.5 h, 10 µM is 94.1%.

Turning to `CC(=O)Nc1cccc(Oc2nccnc2/C=C/c2ccccc2)c1` [CBK106881], the viability at 28.5 h, 10 µM is 91.6%.

Consider `C(=C\c1nccnc1OCc1cccs1)/c1ccccc1` [CBK106883], for which the viability at 28.5 h, 10 µM turned out to be 112%.

Take `C(=C\c1nccnc1OCCn1cccc1)/c1ccccc1` [CBK106884]: the viability at 28.5 h, 10 µM turned out to be 94%.

`COc1cccc(COc2nccnc2/C=C/c2ccccc2)c1OC` [CBK106888]: the viability at 28.5 h, 10 µM was determined as 89.3%.

Take `CCCCOc1nccnc1/C=C/c1ccccc1` [CBK106890]: the viability at 28.5 h, 10 µM worked out at 92%.

As for `Fc1ccc(-c2nccnc2OCc2ccccn2)cc1` [CBK106894], the viability at 28.5 h, 10 µM is 99.6%.

In the case of `COc1cccc(Oc2nccnc2-c2ccc(F)cc2)c1` [CBK106897], the viability at 28.5 h, 10 µM came to 93.5%.

With `CC(=O)Nc1cccc(Oc2nccnc2-c2ccc(F)cc2)c1` [CBK106900], the viability at 28.5 h, 10 µM came out at 37.1%.

Regarding `COCOc1ccc(-c2nccnc2OCCc2cccs2)cc1` [CBK106911], the viability at 28.5 h, 10 µM came to 106%.

For `COCOc1ccc(-c2nccnc2OCCN2C(=O)c3ccccc3C2=O)cc1` [CBK106913], the viability at 28.5 h, 10 µM turned out to be 111%.

Take `COCOc1ccc(-c2nccnc2OC)cc1` [CBK106914]: the viability at 28.5 h, 10 µM was determined as 111%.

Consider `COCOc1ccc(-c2nccnc2OC2CCCCC2)cc1` [CBK106917], for which the viability at 28.5 h, 10 µM was 94.3%.

Turning to `COCc1cccc(-c2nccnc2OC)c1` [CBK106956], the viability at 28.5 h, 10 µM was 95.2%.

Turning to `COCc1cccc(-c2nccnc2Oc2cccc(OC)c2)c1` [CBK106958], the viability at 28.5 h, 10 µM worked out at 90.6%.

Regarding `COCc1cccc(-c2nccnc2OC2CCCCC2)c1` [CBK106959], the viability at 28.5 h, 10 µM was found to be 87.5%.

As to `COCc1cccc(-c2nccnc2OC(c2ccccc2)c2ccccc2)c1` [CBK106960], the viability at 28.5 h, 10 µM was 101%.

Consider `Cc1ccc(-c2nccnc2OCCN2C(=O)c3ccccc3C2=O)c(C)c1` [CBK106981], for which the viability at 28.5 h, 10 µM was 90%.

Take `Cc1ccc(-c2nccnc2OCc2ccc3c(c2)OCO3)c(C)c1` [CBK106982]: the viability at 28.5 h, 10 µM was 93.1%.

On to `CC(=O)Nc1cccc(Oc2nccnc2-c2ccc(C)cc2C)c1` [CBK106986], for which the viability at 28.5 h, 10 µM is 95.3%.

Consider `Cc1ccc(-c2nccnc2OCCC(C)C)c(C)c1` [CBK106988], for which the viability at 28.5 h, 10 µM was 102%.

With `COc1cccc(COc2nccnc2-c2ccc(C)cc2C)c1OC` [CBK106995], the viability at 28.5 h, 10 µM is 93.2%.

For the compound `c1csc(-c2nccnc2OC2CCCCC2)c1` [CBK107060], the viability at 28.5 h, 10 µM was 90.2%.

For `c1ccc(C(Oc2nccnc2-c2cccs2)c2ccccc2)cc1` [CBK107061], the viability at 28.5 h, 10 µM was 112%.

Consider `c1csc(-c2nccnc2OCC2COc3ccccc3O2)c1` (stereo not drawn) [CBK107063], for which the viability at 28.5 h, 10 µM worked out at 101%.

`Cn1cc(-c2nccnc2OCCc2cccs2)cn1` [CBK107066]: the viability at 28.5 h, 10 µM was 95%.

As for `Cn1cc(-c2nccnc2OCCN2CCCC2=O)cn1` [CBK107068], the viability at 28.5 h, 10 µM came out at 106%.
